Reference: patent US8334413B2, “Topical compositions and methods for epithelial-related conditions” (Signum Biosciences, Inc., priority 2004, dated 2012)
Blank lines part the entries; values can stand above or below the molecule they belong to.

Columns and labels:
[1] = tested on: chronic irritation; assay: Chronic irritation by multiple TPA applications, mouse ear; type: in vivo, mice; details: AFC in acetone, applied 6 hr apart on days 7, 8 and 9; TPA days 0, 2, 4, 7, 9
Protocol: The effectiveness of the inventive compositions against established chronic irritation is assayed using a modification of the technique of Stanley P L et al., Mouse skin inflammation induced by multiple topical application 12-O-tetradeconoyphorbol-13-acetate. Skin Pharmacol. 1991, 4: p 262-271. (1991). Both ears of each mouse are treated with TPA in acetone, as above, in a series of 5 applications on the mornings of days 0, 2, 4, 7, and 9. […] Punches of the ears are taken the afternoon of the tenth day and prepared, as above, for the edema assay and the infiltration of neutrophils. Total granulocyte infiltration is assayed by measuring MPO activity. Macrophage infiltration is determined immunocytologically using the MOMA-2 antibody. Hydrocortisone, which is known to reduce inflammatory edema granulation infiltration and microphage infiltration, is used as a positive control.

[2] = tested on: TPA-induced edema; assay: TPA-induced edema, murine ear acute contact irritation model; type: in vivo, mice; details: 2 μg TPA/20 μl acetone, AFC 15 min later, topical, 5.5 hours
Protocol: In order to assess the effects of the inventive composition on TPA-induced edema, 2 μg of TPA in 20 μl acetone was applied with the aid of a micropipetter onto both ears of each of 6 mice. The mice were returned to their cages. […] 20 μl of an acetone vehicle was applied similarly to the left ear of each mouse as an internal negative control. After treatment, the mice were returned to their cages for 5.5 hours. The mice were sacrificed by cervical dislocation. The ears were immediately removed at their base and a 6 mm diameter punch biopsy was taken from the center of each ear. The ear punch was weighed on an analytical balance for edema measurements as described above.

[3] = tested on: TPA-induced MPO activity; assay: TPA-induced MPO activity at different application times; type: in vivo, mice; details: 1 μg/20 μl TPA; 1 mg/20 μl AFC at various times before and after TPA
Protocol: In this example, both ears of six mice were treated with a 1 μg/20 μl dose of TPA in acetone.

[4] = tested on: human skin; assay: SDS irritant patch test on human skin, AFC pre-applied; type: in vivo; details: 140 mM AFC aqueous formulation pre-applied
Protocol: An irritant was applied to the middle of the upper back of a human subject using a 0.2 ml 20% SDS solution and a Hill-Top Chamber patch with Webril pad. […] Patches 1a and 2a were removed after 2 hours, while patches 1b and 2b were removed after 2 hours and 30 minutes. High levels of irritation were visible in patch sites 2a and 2b.

[5] = tested on: delayed-type hypersensitivity; assay: DNFB delayed-type hypersensitivity, mouse ear; type: in vivo, mice; details: AFC 0.5 hr before or 15 min after DNFB challenge, assay 5 hr later
Excerpt: The mouse ear model, described above, is modified to assay the effect of anti-inflammatory agents in an immune based inflammation model (See Tramposch, K. M., Skin Inflammation, in In Vivo Models of Inflammation, M. L. Morgan D W, Editor. 1999, Birkhauser Verlag. p. 179-20 and Chapman, J. R., Z. Ruben, and G. M. Butchko, Histology of and quantitative assays for oxazolone-induced allergic contact dermatitis in mice. Am J Dermatopathol, 1986. 8(2): p. 130-8). In this model, a sensitizing dose of dinitrofluorobenzene (“DNFB”) 1-3% in acetone is applied topically according to a modification of the method by Back et al. (See Back, O. and T. Egelrud, Topical glucocorticoids and suppression of contact sensitivity. A mouse bioassay of anti-inflammatory effects. Br J Dermatol, 1985. 112(5): p. 539-45 and Bailey, S. C., et al., A novel contact hypersensitivity model for rank-ordering formulated corticosteroids. Inflamm Res, 1995. 44 Suppl 2: p. S162-3) to the shaved bellies of mice to elicit an immune response. Mice are challenged on day 5 with 40 μl of 0.5-1% DNFB to each ear. […] The ears are assayed for edema or neutrophil infiltration 5 hr later. Dexamethasone is used as a positive control. Five days later, the ears are challenged topically with a dose of DNFB insufficient to produce contact irritation. Simultaneously, cell infiltration studies are initiated. […]

[6] = tested on: TPA-induced MPO activity; assay: TPA-induced MPO activity in the contralateral vehicle-treated ear (systemic effect); type: in vivo, mice
Protocol: These included dexamethasone, a steroid, and indomethasone, a non-steroid anti-inflammatory drug, which targets cycloxygenases. The action of AFC in this model was, therefore, compared to that of dexamethasone and indomethasone. Each of these agents were tested using the same protocols used to test AFC.

[7] = tested on: TPA-induced erythema; assay: TPA-induced erythema, mouse ear; type: in vivo; details: 1 μg/20 μl TPA, 1 mg/20 μl AFC after 1 hour, photo 23 hours later
Protocol: For this example, both ears of a mouse were treated with a 1 μg/20 μl dose of TPA in acetone. […] The photo was taken 23 hours later using a Nikon D70 digital camera.

[8] = biological target: membrane-associated polyisoprenoid methyl transferase (Homo sapiens, UniProt O60725); details: cited from earlier work
[9] = tested on: TPA-induced neutrophil infiltration; assay: TPA-induced neutrophil infiltration, neutrophil counting assay (histology); type: in vivo, mice; details: 24 hours
Protocol: Neutrophil Counting Assay: Ear punches buffered in 10% formalin in PBS at ambient temperature for a minimum of 24 hrs. were sectioned and stained with Hematoxilin & Eosin (“H&E”). The number of neutrophils, identified by their multilobular nuclei, in 6 randomly 100× magnified fields distributed along the length of the ear were manually counted. The results are expressed as the average number per field for each ear.
(§1) Two micrograms of TPA in 20 μl of acetone was applied onto both ears of each mouse to induce neutrophil infiltration. […] After 24 hours, the mice were sacrificed.

[10] = tested on: neutrophil, macrophage, and platelet responses; details: cited from earlier work
[11] = tested on: TPA-induced MPO activity; assay: TPA-induced neutrophil infiltration, MPO assay; type: in vivo, Swiss Webster male mice
Protocol: Neutrophil-infiltration Assay: Swiss Webster male mice (n=6) were treated with 1 μg/20 μl of TPA as described above in order to assess whether or not TPA induced neutrophil infiltration. Acetone was used as a control. TPA was administered as described above. The mice were returned to their cages for 24 hrs to allow neutrophil infiltration, then sacrificed by cervical dislocation. The ears were immediately removed for punch biopsy, and punches were fixed for subsequent histological analysis and MPO enzymatic assay.
MPO Assay: This assay measures myeloperoxidase, (“MPO”) which is packaged in the primary granules of mature granulocytes including the neutrophil. Thus, the amount of MPO in the ear is proportional to the number of infiltrating neutrophils.
MPO enzyme activity of the ears was assayed using the technique detailed by Griffiths and coworkers (1988). To conduct the assay, each ear was homogenized in 1.0 ml of cetyltrimethylammonium bromide buffer for 5 sec using a Pro 200 tissue blender (Pro Scientific, Inc., Oxford, Conn.) at setting 5. These samples were then centrifuged for 5 minutes at 15,000 rpm in a 5415 Eppendorf microcentrifuge. Triplicate 20 microliter aliquots of supernatant were added to 200 microliters of reaction mixture (1.25 ml 1M Potassium Phosphate, 4.175 mg o-dianisidine dihydrochloride and 5 μl of 1% peroxide in a final volume of 25 ml). Absorbance at 450 nm was then measured at room temperature at three 60 second intervals using Bio-Kinetics Reader EL 312E (Bio-Tek Instruments). Activity, which was determined by a Bradford assay of the homogenate (BioRad Protein Assay, BioRad Laboratories, Inc. Hercules, Calif.) was expressed as units MPO per mg tissue +/−standard error.
as §1

[12] = tested on: mouse ear; assay: AFC in acetone alone, mouse ear edema (irritancy); type: in vivo, mice; details: topical, dose up to 32 mg/20 μl, 5.5 hours
Protocol: The AFC inventive compositions were spread evenly with a pipette tip. Each contralateral ear was treated with only acetone in the same manner. The mice then were returned to their cages. After 5.5 hours, mice were sacrificed and 6 mm punches were taken from each ear and weighed. Edema response was expressed as the percent increase in the treated ear's weight over the untreated (acetone, vehicle only) ear.

[13] = tested on: mouse ear; assay: TPA dose response, mouse ear edema; type: in vivo, Swiss Webster mice; details: TPA 0.25 to 1.75 μg/20 μl in acetone, topical, 5.5 hours, 6 mm ear punch
Protocol: Increasing concentrations of TPA dissolved in acetone were applied with the aid of a micropipetter onto the right ear of each of the five 6-8 week old, male Swiss Webster mice used in this analysis. Ten microliters were spread evenly onto the inner and outer surfaces using the pipette tip. The mice were then returned to their cages. The contralateral ear was treated only with acetone. After 5.5 hours, the mice were sacrificed and 6 mm punches were taken from each ear and weighed. Edema response was expressed as a percent increase in the treated ear's weight over the untreated ear. The dose response curve, as well as an ED50 value, was determined using the Lichtfield method (Lichtfield J T W. F., A simplified method of evaluating dose-effect experiments, Journal of Pharmacology and Experimental Therapeutics, 1948, 96: P. 99-113).

[14] = 2 μg TPA/20 μl acetone, AFC 15 min later, topical, 24 hours

membrane-associated polyisoprenoid methyl transferase, sequence (O60725 whole entry): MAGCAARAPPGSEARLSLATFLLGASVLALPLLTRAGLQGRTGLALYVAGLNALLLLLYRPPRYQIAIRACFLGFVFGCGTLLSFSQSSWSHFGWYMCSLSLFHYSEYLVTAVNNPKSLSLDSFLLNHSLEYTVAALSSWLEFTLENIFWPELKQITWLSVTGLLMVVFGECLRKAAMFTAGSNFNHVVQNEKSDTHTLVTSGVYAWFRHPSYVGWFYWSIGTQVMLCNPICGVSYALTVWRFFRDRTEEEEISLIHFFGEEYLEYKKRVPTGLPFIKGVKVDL

MPO activity in contralateral vehicle-treated ear (systemic effect) ([6]; topical, increasing concentration on the other ear, TPA on both ears): no effect
inflammation activity of AFC on its own in the Neutrophil-Infiltration Assay ([11]; AFC alone): no inflammation activity of its own
Molecule: CC(=O)N[C@@H](CSCC=C(C)CCC=C(C)CCC=C(C)C)C(=O)O (stereo in doubt) [AFC, N-acetyl-S-farnesylcysteine]
chronic edema [1]: reduces
neutrophil number (chronic irritation) [1]: reduces
maximum reduction in TPA-induced edema [2]: 80%
effect on TPA-induced MPO activity versus time of application [3]: efficacy of AFC treatment prior to, simultaneous with, or after exposure of skin to TPA
skin irritation at patch site 1a ([4]; 20% SDS patch removed after 2 hours): normal skin
skin irritation at patch site 1b ([4]; 20% SDS patch removed after 2 hours and 30 minutes): mild response
edema (DNFB challenge) [5]: effective in reducing
neutrophil infiltration (DNFB challenge) [5]: effective in reducing
TPA-induced erythema [7]: observed an effect
inhibition of membrane-associated polyisoprenoid methyl transferase [8]: inhibit
reduction in dermal neutrophils (counted) ([9]; 1.0 mg/20 μl AFC, TPA irritation, statistically significant): 80%
neutrophils observed histologically in AFC treated ear ([9]; TPA pretreated ears, H&E): substantial reduction of neutrophils
neutrophil, macrophage, and platelet responses in vitro [10]: block some
ED50, inhibition of TPA-induced MPO activity [11, 14]: 0.065 mg/20 μl
inhibition of TPA-induced increases in MPO activity [11, 14]: > 80%
edema response (ear punch biopsy weight), AFC alone [12]: no effect

MPO activity in contralateral vehicle-treated ear (systemic effect) ([6]; mouse, in vivo): increasing inhibition of MPO activity
Molecule: C[C@@H]1C[C@H]2[C@@H]3CCC4=CC(=O)C=C[C@]4(C)[C@@]3(F)[C@@H](O)C[C@]2(C)[C@@]1(O)C(=O)CO [dexamethasone]

MPO activity in contralateral vehicle-treated ear (systemic effect) ([6]; mouse, in vivo): increasing inhibition of MPO activity
Molecule: COc1ccc2c(c1)c(CC(=O)O)c(C)n2C(=O)c1ccc(Cl)cc1 [indomethasone]

Molecule: tetradecanoylphorbol acetate [TPA]
maximum increase in ear weight [13]: approximately 150 % of the acetone-treated ear
